Key:
human CB1 receptor [1] = target: T1, human CB1 receptor (Homo sapiens, UniProt P21554); assay: Functional cell-based assay, CB1 receptor mediated change in CRE β-gal expression; parameters: expressed in transfected cells; host or cells: SK-N-MC cells; details: SK-N-MC cells with CRE β-gal and human CB1; forskolin treated; β-galactosidase activity; read-out: EC50 value for functional activity as a CB1 receptor functional inverse agonist
Text: The CB1 and CB2.receptors are G-protein coupled receptors (GPCR) that influence cell function via the Gi-protein. These receptors modulate the activity of intracellular adenylate cyclase, which in turn produces the intracellular signal messenger cyclic-AMP (cAMP).
At baseline, or during non-ligand bound conditions, these receptors are constitutively active and tonically suppress adenylate cyclase activity. The binding of an agonist causes further receptor activation and produces additional suppression of adenylate cyclase activity. The binding of an inverse agonist inhibits the constitutive activity of the receptors and results in an increase in adenylate cyclase activity.
Test compounds were evaluated in SK-N-MC cells which, using standard transfection procedures, were stably transfected with human cDNA for pcDNA3-CRE β-gal and pcDNA3 CB1 receptor (human) or pcDNA3 CB2 receptor (human). By expressing CRE β-gal, the cells produced β-galactosidase in response to CRE promoter activation by cAMP. Cells expressing CRE β-gal and either the human CB1 or CB2 receptor will produce less β-galactosidase when treated with a CB1/CB2 agonist and will produce more β-galactosidase when treated with a CB1/CB2 inverse agonist.
The cells were grown in 96-well plates under standard cell culture conditions at 37° C. in a 5% CO2 atmosphere. After 3 days, the media was removed and a test compound in media (wherein the media was supplemented with 2 mM L-glutamine, […] sodium pyruvate, 0.1% low fatty acid FBS (fetal bovine serum) and antibiotics) was added to the cell. The plates were incubated for 30 minutes at 37° C. and the plate cells were then treated with forskolin over a 4-6 hour period, then washed and lysed. The β-galactosidase activity was quantitated using commercially available kit reagents (Promega Corp. Madison, Wis.) and a Vmax Plate Reader (Molecular Devices, Inc).
For cells expressing CRE β-gal and the CB1 receptor, CB1 agonists reduced β-galactosidase activity in a dose-dependent manner and CB1 inverse agonists increased β-galactosidase activity in a dose-dependent manner.
The change in β-galactosidase activity was determined by setting a vehicle treated cell's activity value at 100% and expressing the β-galactosidase activity measured in a corresponding compound treated cell as a percent of the vehicle treated cell activity.
The EC50 value for functional activity for compounds tested was calculated by linear regression and was obtained from studies in which varying compound concentrations were used.

human CB1 receptor [2] = target: T1, human CB1 receptor; assay: Binding assay for CB1 agonists or inverse agonists ([3H]-CP-55,940 displacement); parameters: expressed in transfected cells; host or cells: SK-N-MC cells (semi-purified membrane pellet); details: test concentration of 0.2 μM; membranes of SK-N-MC cells expressing human CB1
Procedure: (§1) The human CB1 and CB2 receptors were stably expressed in SK-N-MC cells transfected with pcDNA3 CB1 (human) or pcDNA3 CB-2 (human). The cells were grown in T-180 cell culture flasks under standard cell culture conditions at 37° C. in a 5% CO2 atmosphere. The cells were harvested by trysinization and homogenized in a homogenization buffer (10 mM Tris, 0.2 mM MgCl2, 5 mM KCl, with protease inhibitors aprotinin, leupeptin, pepstatin A and bacitracin) and centrifuged (2000 g). The supernatant was then centrifuged in 2M sucrose (31,300 g) to produce a semi-purified membrane pellet. The pellet was resuspended in homogenization and stored at −80° C.
(§2) On the day of the assay, the pellet was thawed on ice and diluted in assay buffer (50 mM Tris-HCl, 5 mM MgCl2, 2.5 mM EDTA, 0.5 mg/mL fatty acid free bovine serum albumin, pH 7.5). […] Non-specific binding was measured in wells containing WIN 55,212 (10 uM). […] The Unifilter plate was dried, a scintillation cocktail was added to each well and the counts representing binding were quantitated in a TopCount scintillation counter.
(§3) For compounds tested, an IC50 binding value was obtained from percent inhibition studies in which various test concentrations were used. The binding value was calculated by linear regression. […]

human CB2 receptor = target: T2, human CB2 receptor (Homo sapiens, UniProt P34972); assay: Binding assay for CB2 agonists or inverse agonists ([3H]-CP-55,940 displacement); details: test concentration of 0.2 μM; membranes of SK-N-MC cells expressing human CB2
T2 construct: expressed in transfected cells; host or cells: SK-N-MC cells (semi-purified membrane pellet)
Procedure: as §1, §2, §3

T1 sequence (P21554 whole entry): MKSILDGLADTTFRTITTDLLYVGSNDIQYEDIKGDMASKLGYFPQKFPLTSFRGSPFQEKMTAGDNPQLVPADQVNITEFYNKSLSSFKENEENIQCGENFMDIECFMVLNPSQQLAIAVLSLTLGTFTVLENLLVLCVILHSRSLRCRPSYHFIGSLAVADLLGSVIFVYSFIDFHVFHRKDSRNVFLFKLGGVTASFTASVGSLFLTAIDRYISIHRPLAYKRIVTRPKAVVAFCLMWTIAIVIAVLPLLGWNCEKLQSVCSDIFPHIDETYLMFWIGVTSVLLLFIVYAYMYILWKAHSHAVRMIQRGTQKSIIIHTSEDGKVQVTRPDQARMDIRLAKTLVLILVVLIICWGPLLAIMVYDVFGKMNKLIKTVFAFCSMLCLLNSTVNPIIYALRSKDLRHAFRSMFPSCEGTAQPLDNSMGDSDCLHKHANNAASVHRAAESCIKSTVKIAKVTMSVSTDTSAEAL
T2 sequence (P34972 whole entry): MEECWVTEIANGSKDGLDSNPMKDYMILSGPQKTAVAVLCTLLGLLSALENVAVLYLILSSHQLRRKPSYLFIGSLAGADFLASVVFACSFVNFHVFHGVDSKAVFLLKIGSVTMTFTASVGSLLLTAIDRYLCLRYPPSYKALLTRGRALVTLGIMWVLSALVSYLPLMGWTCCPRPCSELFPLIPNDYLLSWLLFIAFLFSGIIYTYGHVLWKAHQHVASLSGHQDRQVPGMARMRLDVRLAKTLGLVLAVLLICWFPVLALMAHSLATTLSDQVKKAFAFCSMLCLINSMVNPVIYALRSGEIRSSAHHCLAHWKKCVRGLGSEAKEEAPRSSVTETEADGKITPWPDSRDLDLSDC

SMILES | EC50 (human CB1 receptor [1]) [nM] | CB1 binding (human CB1 receptor [2]) [%] | CB2 binding (human CB2 receptor) [%]
O=C(NN1C=CCCC1)c1nn(-c2ccc(Cl)cc2Cl)c2c1CCC/C2=C\c1ccc(F)cc1 [Compound 5, (7E)-1-(2,4-dichloro-phenyl)-7-(4-fluoro-benzylidene)-4,5,6,7-tetrahydro-1H-indazole-3-carboxylic acid(3,4-dihydro-2H-pyridin-1-yl)-amide] | 1.4 |  | 
O=C(NN1CCC(O)CC1)c1nn(-c2ccc(Cl)cc2Cl)c2c1CCC/C2=C\c1ccc(F)cc1 [Compound 1, (6E)-1-(2,4-dichloro-phenyl)-7-(4-fluoro-benzylidene)-4,5,6,7-tetrahydro-1H-indazole-3-carboxylic acid (4-hydroxy-piperidin-1-yl)-amide] | 40 |  | 
O=C(NN1CCCCC1=O)c1nn(-c2ccc(Cl)cc2Cl)c2c1CCC/C2=C\c1ccc(F)cc1 [Compound 3, (7E)-1-(2,4-dichloro-phenyl)-7-(4-fluoro-benzylidene)-4,5,6,7-tetrahydro-1H-indazole-3-carboxylic acid(2-oxo-piperidin-1-yl)-amide] |  | 19 | 28
COC1CCN(NC(=O)c2nn(-c3ccc(Cl)cc3Cl)c3c2CCC/C3=C\c2ccc(F)cc2)CC1 [Compound 2, (7E)-1-(2,4-dichloro-phenyl)-7-(4-fluoro-benzylidene)-4,5,6,7-tetrahydro-1H-indazole-3-carboxylic acid(4-methoxy-piperidin-1-yl)-amide] | 4 |  | 
C[N+]1(NC(=O)c2nn(-c3ccc(Cl)cc3Cl)c3c2CCC/C3=C\c2ccc(F)cc2)CCCCC1 [Compound 4, (7E)-1-{[1-(2,4-dichloro-phenyl)-7-(4-fluoro-benzylidene)-4,5,6,7-tetrahydro-1H-indazole-3-carbonyl]-amino}-1-methyl-piperidinium] | 7.2 |  | 
